Measured values taken from US8772463B2, “Fluorescent dye-labeled glucose bioprobe, synthesis method and usage thereof” (SNU R&DB Foundation, priority 2007, dated 2014).

Columns and labels:
[1] = tested on: NIH/3T3 cells; experiment: Cy3-Glc-α uptake in normal cells versus cancer cells, inverted fluorescent microscope; assay type: cell-based, murine
Description: (§1) 1×10^4 cells were cultured on a Lab-Tek glass chamber slide (Nalge Nunc International, Naperville, Ind., USA) in 35 mm cell culture dish. After 24 h, the cells were treated for each experimental purpose. Then, the medium was replaced with RPMI 1640 medium containing 12.5 μM of Cy3-Glc-α. The cells were exposed to Cy3-Glc-α for 40 min, then washed with PBS 3 times. Finally, the glass chamber slide was taken from culture dish and loaded on the fluorescence microscope (Axiovert 200, Carl Zeiss, Germany). Fluorescence images of 35-50 cells were taken by CCD camera (Axiocam MRm, Germany) and fluorescence intensity of each cell was measured by Axiovision (program for data analysis). An area as ROIs (regions of interest) which contains a cell in phase-contrast image was drawn using Axiovision. Axiovision analyzed CCD camera images and provided the digitized mean of fluorescence intensity in the ROIs that the present inventors had established. The present inventors subtracted the background intensity from the fluorescence intensity to get the fluorescence intensity value that a cell contained. With the method described above, the present inventors digitized fluorescence intensity and performed various experiments.
(2) Based on this observation, further studies in bioimaging and bioapplication were performed only with the α anomer as choice of the bioprobe. […]

[2] = tested on: A549 cells; experiment: Cy3-Glc-α intracellular uptake efficiency, confocal laser scanning microscope (CLSM); assay type: cell-based, human; details: CLSM live-cell imaging
Description: 1×10^4 cells were cultured on a Lab-Tek glass chamber slide (Nalge Nunc International, Naperville, Ind., USA) in 35 mm cell culture dish. After 24 h, the glass chamber slide was taken from culture dish and loaded on chamber. Then, the chamber was attached to the microscope. The temperature of the chamber was maintained at 37° C. After injection of 12.5 μM of Cy3-Glc-α in RPMI 1640 in the chamber, the fluorescent image was taken every 60 sec, digitized, and saved on a computer for later analysis.
(1) To evaluate the applicability of the fluorescent glucose analogue (Cy3-Glc-α) of the present invention, finally obtained in Example 1, as a bioprobe, the intracellular uptake efficiency of Cy3-Glc-α was measured by using a confocal laser scanning microscope (CLSM).
(2) In addition, the experiment was performed by using the confocal laser scanning microscope to measure the optimum incubation time required to achieve the maximum uptake of the analogue Cy3-Glc-α.

[3] = tested on: A549 cells; experiment: Probe uptake by A549 cells, inverted fluorescent microscope (α/β anomers, alanine, 2-NBDG comparison); assay type: cell-based, human
Description: as §1
To confirm the above hypothesis, real-time uptake of Cy3-Glc-α was measured, and the results were compared to those of Cy3-Glc-β by live imaging of A549 cells by using inverted fluorescent microscope. […] This led the present inventors to the conclusion that the stereochemistry at the C-1 anomeric position definitely influences the efficiency of mimicking glucose, and this might be due to the binding orientation of D-glucose in GLUTs [P. W. Hruz, M. M. Mueckler, Mole. Memb. Biol. 2001, 18, 183-193].
The cellular uptake of 2-NBDG was not detected under identical experimental conditions used for Cy3-Glc-α. […] To achieve the fluorescence intensity with 2-NBDG to 80% that of Cy3-Glc-α, a 10 fold increase in 2-NBDG concentration and a 20 fold increase in the lens exposure time in D-glucose-depleted medium were needed.
In addition, the cellular uptake of 2-NBDG in normal media (containing 10 mM D-glucose) was extremely low (>60% uptake reduction in normal media) and was hardly detected using fluorescent based imaging methods [R. G. O'Neil, L. Wu, N. Mullani, Mol. Imaging Biol. 2005, 7, 388-392]. 2-NBDG was detectable only in glucose-depleted media, and this means a critical limitation of bioapplication of 2-NBDG in the biologically significant environments. In comparison with 2-NBDG, the reduction of Cy3-Glc-α uptake in glucose-containing media was only 5% compared to that in glucose-depleted media (FIG. 18). Therefore, it was confirmed that Cy3-Glc-α was capable of being applied to a bioassay system regardless of glucose starvation.

[4] = tested on: A549 cells; experiment: Direct competition of Cy3-Glc-α uptake with D-glucose / L-glucose; assay type: cell-based, human; details: 37° C.
Description: as §1, with “experiments. […]” for “experiments.”

[5] = tested on: A549 cells; experiment: Fluorescence imaging analysis of competitive probe uptake; assay type: cell-based, human; details: probe 12.5 μM
Description: Also, NIH/3T3, A549, C2C12 and 3T3/L1 cells, each having a population of 4×10^4 cells, were cultured on 35 mm cell culture dishes (BD Falcon™ Cell Culture Dish; BD Bioscience, CA, USA). Two days later, the cell culture medium was replaced with a glucose-depleted medium (DMEM, glucose free, GIBCO) supplemented with 0 mM, 11 mM or 55 mM D-glucose and 10 μM GB2-Cy3. After incubation at 37° C. for 30 min, the cells on the cover slips in the 35-mm cell culture dishes were washed twice with cold PBS and the cover slips were mounted on the caster of a fluorescence microscope (Olympus IX71). During observation under the fluorescence microscope, the cells were maintained at 37° C. in the chamber. Fluorescence images of 35-50 cells were taken by CCD camera (Axiocam MRm, Germany) and each cell was measured for fluorescence intensity using the image data analysis program Image-Pro® Plus (MediaCybernetics, USA). As ROIs (regions of interest), areas which encompassed cells within phase-contrast images were drawn using Image-Pro® Plus. Image-Pro® Plus analyzed CCD camera images to produce the digitized mean of fluorescence intensity within the ROIs that the present inventors had established. The background intensity was subtracted from the detected fluorescence intensity to give the fluorescence intensity value that a cell contained. In this manner, the fluorescence intensity was digitized for performing various experiments.
NIH/3T3 and A549 cells were cultured on microscope cover glasses in 35 mm cell culture dishes and subjected to fluorescence imaging analysis according to the protocol.

SMILES: C[N+]1=C(/C=C/C=C2/N(CCCCC(=O)NCCOCCOCCNCCOC3OC(CO)C(O)C(O)C3O)c3ccccc3C2(C)C)C(C)(C)c2ccccc21 [Cy3-Glc-α, [2-(N-Cy3-3,6-dioxaoctane-1,8-diaminoethyl)]-α-D-glucose]
- Cy3-Glc-α uptake in NIH/3T3 relative to that of A549 cells [1]: 30%
- incubation time to maximum uptake [2]: ≤ 35 min
- uptake efficiency with or without alanine (osmotic pressure) ([3]; 55 mM alanine in media): no difference in the uptake efficiency
- reduction of uptake in glucose-containing media compared to glucose-depleted media ([3]; A549 cells): 5%
- uptake of Cy3-Glc-α superior to that of Cy3-Glc-β ([3]; A549 cells, live imaging): 40%
- uptake versus L-glucose in the medium ([4]; 50 mM L-glucose): not influenced by the concentration of L-glucose
- uptake versus concentration of D-glucose in the medium ([4]; RPMI 1640 lacking glucose, 10 mM or 50 mM D-glucose): decreased as the concentration of D-glucose in the medium increased
- cellular uptake versus D-glucose concentration [5]: decreased in the cellular uptake of the glucose analogues in D-glucose dose-dependent manners
- change in the fluorescent intensity of ROIs when D-glucose changed from 10 mM to 55 mM [5]: approximately 5%
- fluorescent intensity of treated cells, GB2-Cy3 normalized to 100 [5]: 4
